Assay results reported in US10894817B2, “Fatty acid modified urocortin-2 analogs for the treatment of diabetes and chronic kidney disease” (priority 2016, dated 2021).
Read-outs that look alike come from different tables or passages of the source. Starred links: 1 amine or outer side, 2 acyl side, 3 side chain; linkers in the order of their positions; H or OH if unused. Non-standard residues stand in square brackets, D forms with d. Residues, ends and D or L forms follow the SMILES beside them. Groups on a side chain read outwards from the residue. *: point of attachment. C20 diacid = O=C(O)CCCCCCCCCCCCCCCCCCC(=O)*; γGlu = O=C(O)[C@H](CCC(=O)[*:2])N[*:1]; NMeI = CC[C@H](C)[C@H](NC)C(=O)O; AEEA = NCCOCCOCC(=O)O

How the values were obtained:
remnant kidney mice [1] = test: Mouse remnant kidney model of hypertensive nephropathy (Example 2, 9 weeks); assay type: in vivo; conditions: all groups
Description: (§1) A mouse remnant kidney model (“remnant”) involving surgical reduction of ¾ of the entire renal mass is used as a preclinical model of hypertensive renal disease (Kidney Int. 64(1):350-5, (2003)).
Surgical reduction of renal mass (N=40 mice) or sham surgery is performed by Taconic, Inc. in male 129S6 mice at 8-9 weeks of age (obtained by Taconic, Inc.). Randomization into 5 equivalent groups of 8 remnant kidney mice is done at 15 weeks post-surgery by urine albumin to creatinine ratio (ACR) and body weight.
Study duration is 9 weeks. After 2 weeks of dosing, a necropsy is done on all groups except the 144 nmol/kg group of Example 2 which continues to be monitored for ACR for another 7 weeks to determine the durability of the effects of the compound of Example 2 on urine ACR. […]
Body weight is determined at baseline and at termination with a Metler Toledo Balance. […] Serum is analyzed for BUN and creatinine on a Roche Hitachi Modular Analytics P analyzer with reagents from Roche. […]
(§2) Urine albumin and creatinine are determined on a Roche Hitachi Modular Analytics P analyzer. Urine creatinine is determined with the Creatinine Plus reagent by Roche. […]
All data are analyzed with JMP v.8.0 software (SAS Institute). […] All other data were evaluated by ANOVA with log transformed data if the data were skewed and a Students unpaired t test. […]

[2] = cynomolgus monkey, in vivo, iv, 96.4 nmol/kg, T1/2
Description: Plasma concentrations of compounds were determined by LC/MS methods. Each method measured the intact compound; peptide plus linked time extension. […] Two distinct layers were formed upon centrifugation with the compound and the IS located in the supernatant layer. An aliquot of the supernatant (80 μl) was transferred to a Thermo Protein Precipitation Plate with water (150 μl) and formic acid (25 μl) followed by mixing. A final 31% acetonitrile in 10% formic acid sample (10 μl) was loaded onto a Supelco Analytical Discovery BIO Wide Pore C5-3 column (5 cm×1 mm, 3 μm). The column effluent was directed into a Thermo Q-Exactive mass spectrometer for detection and quantitation.
(§3) Male Cynomolgus monkeys were administered a single subcutaneous dose or intravenous dose (96.4 nmol/kg) of a compound described herein in 20 mM Tris-HCl Buffer (pH 7) at a volume of 1 mL/kg. Blood was collected from each animal at 2, 6, 24, 48, 72, 96, 168, 240, 336, 408, and 504 hours postdose for pharmacokinetic characterization.

[3] = rat, in vivo, sc, 150 nmol/kg
Description: (§4) Plasma concentrations of compounds were determined by LC/MS methods. Each method measured the intact compound; peptide plus linked time extension. For each assay, the compound and an analog, used as an internal standard (IS), were extracted from 100% mouse, rat or monkey plasma (25 μl) using acetonitrile. Two distinct layers were formed upon centrifugation with the compound and the IS located in the supernatant layer. An aliquot of the supernatant (80 μl) was transferred to a Thermo Protein Precipitation Plate with water (150 μl) and formic acid (25 μl) followed by mixing. A final 31% acetonitrile in 10% formic acid sample (10 μl) was loaded onto a Supelco Analytical Discovery BIO Wide Pore C5-3 column (5 cm×1 mm, 3 μm). The column effluent was directed into a Thermo Q-Exactive mass spectrometer for detection and quantitation.
(§5) Male Sprague Dawley rats were administered a single subcutaneous dose (50 or 150 nmol/kg) of a compound described herein in 20 mM Tris-HCl Tris Buffer (pH 8) at a volume of 0.26 or 0.77 mL/kg.

remnant kidney mice [4] = test: Mouse remnant kidney model of hypertensive nephropathy (Example 4, 8 weeks); assay type: in vivo; conditions: 2.6 nmol/kg dose group
Description: as §1
Surgical reduction of renal mass (N=32 mice) (obtained by Taconic, Inc.) is performed by Taconic, Inc. in male 129S6 mice at 9-10 weeks of age. Randomization into 4 equivalent groups of 8 remnant kidney mice is done at 17 weeks post-surgery by urine albumin to creatinine ratio (ACR) and body weight. […]
Body weight is determined at baseline and at termination with a Metler Toledo Balance.
The heart and kidney are removed at necropsy and weighed on a Metler Toledo Balance. […] Serum is analyzed for creatinine on a Roche Hitachi Modular Analytics P analyzer with reagents from Roche. […]
as §2
Remnant kidneys are removed at study termination, fixed in formalin and processed for paraffin sectioning according to standard methodology. Sections of kidney are evaluated for renal lesions by a board certified pathologist. […]
Pathology data are statistically evaluated with R software by fitting an ordered logit model to the categorical scores, and then comparing the differences between different treatment groups. […]

in vivo [5] = conditions: male, cynomolgus monkey, sc, 50 nmol/kg
Description: as §4, §3
Male Cynomolgus monkeys were also administered a single subcutaneous dose (50 nmol/kg) of a compound described herein in 20 mM Tris-HCl Buffer (pH 8) at a volume of 0.26 mL/kg. Blood was collected from each animal at 3, 6, 12, 24, 48, 72, 96, 120, 168, 192, 240, 336, 408, and 504 hours postdose for pharmacokinetic characterization.

in vivo [6] = conditions: male, Sprague Dawley, rat, sc; for half-life: T1/2
Description: as §4, §5

CC[C@H](C)[C@H](NC(C)=O)C(=O)N[C@H](C(=O)N[C@@H](CC(C)C)C(=O)N[C@@H](CO)C(=O)N[C@@H](CC(C)C)C(=O)N[C@@H](CC(=O)O)C(=O)N[C@H](C(=O)N1CCC[C@H]1C(=O)N[C@H](C(=O)NCC(=O)N[C@@H](CC(C)C)C(=O)N[C@@H](CC(C)C)C(=O)N[C@@H](CCC(N)=O)C(=O)N[C@H](C(=O)N[C@@H](CC(C)C)C(=O)N[C@@H](CC(C)C)C(=O)N[C@@H](CCC(=O)O)C(=O)N[C@@H](CCC(N)=O)C(=O)N[C@@H](CCC(=O)O)C(=O)N[C@@H](CCCCN)C(=O)N[C@@H](CCC(N)=O)C(=O)N[C@@H](CCC(=O)O)C(=O)N[C@@H](CCCCN)C(=O)N[C@@H](CCC(=O)O)C(=O)N[C@@H](CCCCN)C(=O)N[C@@H](CCC(N)=O)C(=O)N[C@@H](CCC(N)=O)C(=O)N[C@@H](C)C(=O)N[C@@H](CCCCNC(=O)COCCOCCNC(=O)COCCOCCNC(=O)CC[C@H](NC(=O)CC[C@H](NC(=O)CCCCCCCCCCCCCCCCCCC(=O)O)C(=O)O)C(=O)O)C(=O)N[C@H](C(=O)N[C@@H](CC(N)=O)C(=O)N[C@@H](C)C(=O)N[C@@H](CCC(N)=O)C(=O)N[C@H](C(=O)N[C@@H](CC(C)C)C(=O)N[C@@H](C)C(=O)N[C@@H](CCC(N)=O)C(=O)N[C@H](C(N)=O)C(C)C)[C@@H](C)CC)[C@@H](C)O)[C@@H](C)CC)[C@@H](C)CC)C(C)C)C(C)C [Example 2] (Ac-IVLSLDVPIGLLQILLEQEKQEKEKQQAK([AEEA-AEEA-γGlu-γGlu-C20 diacid])TNAQILAQV-NH2)
deaths during the study (remnant kidney mice [1]): no deaths
half-life [2]: 124 h
CL/F ([3]; CL/F): 4.7 mL/h/kg
half-life ([3]; T1/2): 34 h

CC[C@H](C)[C@H](NC)C(=O)N[C@H](C(=O)N[C@@H](CC(C)C)C(=O)N[C@@H](CO)C(=O)N[C@@H](CC(C)C)C(=O)N[C@@H](CC(=O)O)C(=O)N[C@H](C(=O)N1CCC[C@H]1C(=O)N[C@H](C(=O)NCC(=O)N[C@@H](CC(C)C)C(=O)N[C@@H](CC(C)C)C(=O)N[C@@H](CCC(N)=O)C(=O)N[C@H](C(=O)N[C@@H](CC(C)C)C(=O)N[C@@H](CC(C)C)C(=O)N[C@@H](CCC(=O)O)C(=O)N[C@@H](CCC(N)=O)C(=O)N[C@@H](CCC(=O)O)C(=O)N[C@@H](CCCCN)C(=O)N[C@@H](CCC(N)=O)C(=O)N[C@@H](CCC(=O)O)C(=O)N[C@@H](CCCCN)C(=O)N[C@@H](CCC(=O)O)C(=O)N[C@@H](CCCCN)C(=O)N[C@@H](CCC(N)=O)C(=O)N[C@@H](CCC(N)=O)C(=O)N[C@@H](C)C(=O)N[C@@H](CCCCNC(=O)COCCOCCNC(=O)COCCOCCNC(=O)CC[C@H](NC(=O)CC[C@H](NC(=O)CCCCCCCCCCCCCCCCCCC(=O)O)C(=O)O)C(=O)O)C(=O)N[C@H](C(=O)N[C@@H](CC(N)=O)C(=O)N[C@@H](C)C(=O)N[C@@H](CCC(N)=O)C(=O)N[C@H](C(=O)N[C@@H](CC(C)C)C(=O)N[C@@H](C)C(=O)N[C@@H](CCC(N)=O)C(=O)N[C@H](C(N)=O)C(C)C)[C@@H](C)CC)[C@@H](C)O)[C@@H](C)CC)[C@@H](C)CC)C(C)C)C(C)C [Example 4] (H-[NMeI]VLSLDVPIGLLQILLEQEKQEKEKQQAK([AEEA-AEEA-γGlu-γGlu-C20 diacid])TNAQILAQV-NH2)
deaths during the study (remnant kidney mice [4]): one
CL/F (in vivo [5]; CL/F): 0.97 mL/h/kg
half-life (in vivo [5]; T1/2): 79 h
CL/F (in vivo [6]; 50 nmol/kg): 6.4 mL/h/kg
half-life (in vivo [6]; 50 nmol/kg): 19 h
CL/F (in vivo [6]; 150 nmol/kg): 6.8 mL/h/kg
half-life (in vivo [6]; 150 nmol/kg): 21 h
